# From patent publication US8268809B2, “Kinase inhibitors for preventing or treating pathogen infection and method of use thereof” (priority 2006, dated 2012)
# “Also recorded” adds a separate entry of the source.
# Test system: vaccinia virus
# Type: cell-based
# For VACCINIA PLAQUE ASSAY 2 in this document: test concentration or dose not given here.
Compound,VACCINIA PLAQUE ASSAY 2,Class category of infected monolayers in plaque assay,"Plaque phenotype due to drug treatment (FIGS. 1, 2, 4)",VACCINIA Plaque Assay
CCOC(=O)c1ccc(-c2n[nH]c3nc(-c4ccc(NC(C)=O)cc4)ccc23)cc1 [APcK-19],SMALL PLAQUES,,,
CC(=O)Nc1ccc(-c2ccc3c(-c4ccc(Br)c(F)c4)n[nH]c3n2)cc1 [APcK-20],NO PLAQUES,,,
CC(=O)Nc1ccc(-c2ccc3c(-c4ccc(Cl)cc4Cl)n[nH]c3n2)cc1 [APcK-26],SMALL PLAQUES,Class III,pinpoint plaque formations; also recorded: pinpoint plaques,PINPOINT PLAQUES
CC(=O)Nc1ccc(-c2ccc3c(-c4ccc(Br)cc4)n[nH]c3n2)cc1 [APcK-27],SMALL PLAQUES,Class III,pinpoint plaque formations; also recorded: pinpoint plaques,PINPOINT PLAQUES
CC(=O)Nc1ccc(-c2ccc3c(-c4ccc(C)c(F)c4)n[nH]c3n2)cc1 [APcK-28],SMALL PLAQUES,,,
COc1ccc(-c2n[nH]c3nc(-c4ccc(O)cc4OC)ccc23)cc1 [APcK-31],SMALL PLAQUES,,,
CCOC(=O)c1ccc(-c2ccc3c(-c4ccc(C(=O)OC)cc4)n[nH]c3n2)cc1 [APcK-32],,,small plaque and large comets; also recorded: small plaques with large comets,LARGE COMETS
COc1ccc(-c2n[nH]c3nc(-c4ccc(C(=O)c5ccccc5)cc4)ccc23)cc1 [APcK-34],,,small plaque and large comets; also recorded: small plaques with large comets,"SMALL PLAQUES, LARGE COMETS"
O=C(c1ccccc1)c1ccc(-c2ccc3c(-c4ccc(Cl)c(F)c4)n[nH]c3n2)cc1 [APcK-35],NO PLAQUES,Class III,,"SMALL PLAQUES, NO COMETS"
Cc1ccc(-c2n[nH]c3nc(-c4ccc(C(=O)c5ccccc5)cc4)ccc23)cc1F [APcK-37],SMALL PLAQUES,,,
O=C(c1ccccc1)c1ccc(-c2ccc3c(-c4ccc(Br)c(F)c4)n[nH]c3n2)cc1 [APcK-38],NO PLAQUES,,,
O=C(c1ccccc1)c1ccc(-c2ccc3c(-c4ccc(Br)cc4F)n[nH]c3n2)cc1 [APcK-39],NO PLAQUES,,,
CC(=O)Nc1cccc(-c2ccc3c(-c4ccc(Cl)cc4Cl)n[nH]c3n2)c1 [APcK-40],PINPOINT PLAQUES,Class III,,SLIGHTLY SMALLER PLAQUES
CC(=O)Nc1cccc(-c2ccc3c(-c4ccc(Br)cc4F)n[nH]c3n2)c1 [APcK-41],NO PLAQUES,,,
CC(=O)Nc1cccc(-c2ccc3c(-c4ccc(C#N)cc4)n[nH]c3n2)c1 [APcK-44],PINPOINT PLAQUES,Class III,,SMALL PLAQUES WITH COMETS
CCOC(=O)c1ccc(-c2ccc3c(-c4ccc(C(=O)OCC)cc4)n[nH]c3n2)cc1 [APcK-48],SMALL PLAQUES,Class III,,PINPOINT PLAQUES
CCOC(=O)c1ccc(-c2ccc3c(-c4ccc(Cl)c(F)c4)n[nH]c3n2)cc1 [APcK-49],SMALL PLAQUES,,,
CCOC(=O)c1ccc(-c2ccc3c(-c4ccc(C#N)cc4)n[nH]c3n2)cc1 [APcK-55],NO PLAQUES,,,
CCOC(=O)c1ccc(-c2n[nH]c3nc(-c4ccc5cc[nH]c5c4)ccc23)cc1 [APcK-58],NO PLAQUES,,,
COc1ccc(-c2n[nH]c3nc(-c4cccc(NC(C)=O)c4)ccc23)cc1 [APcK-101],,,damaged monolayer,
CC(=O)Nc1cccc(-c2ccc3c(-c4ccc(F)c(C)c4)n[nH]c3n2)c1 [APcK-102],NO PLAQUES,Class III,,SMALLER PLAQUES THAN WT
CC(=O)Nc1cccc(-c2ccc3c(-c4ccc(Cl)c(F)c4)n[nH]c3n2)c1 [APcK-104],PINPOINT PLAQUES,Class III,,SMALLER PLAQUES THAN WT. NO COMETS
CCOC(=O)c1ccc(-c2n[nH]c3nc(-c4cccc(NC(C)=O)c4)ccc23)cc1 [APcK-105],PINPOINT PLAQUES,Class III,no pinpoint plaque formed; also recorded: no plaques,NO PLAQUES

Compound,VACCINIA PLAQUE ASSAY 2,Class category of infected monolayers in plaque assay,"Plaque phenotype due to drug treatment (FIGS. 1, 2, 4)",VACCINIA Plaque Assay
CCOC(=O)c1ccc(-c2n[nH]c3nc(-c4cc(C)c(O)c(C)c4)ccc23)cc1 [APcK-106],PINPOINT PLAQUES,Class III,,SMALLER PLAQUES THAN WT
Cc1cc(-c2ccc3c(-c4ccc(Cl)c(F)c4)n[nH]c3n2)cc(C)c1O [APcK-107],SMALLER PLAQUES THAN WT,Class II,,SMALLER PLAQUES THAN WT
CCOC(=O)c1ccc(-c2n[nH]c3nc(-c4cc(OC)cc(OC)c4)ccc23)cc1 [APcK-108],SMALL PLAQUES,Class III,pinpoint plaque formations; also recorded: pinpoint plaques,PINPOINT PLAQUES
COc1cc(OC)cc(-c2ccc3c(-c4ccc(F)c(C)c4)n[nH]c3n2)c1 [APcK-109],"SMALL PLAQUES, LARGE TAILS",Class II,,SLIGHTLY SMALLER PLAQUES
COc1cc(OC)cc(-c2ccc3c(-c4ccc(F)cc4)n[nH]c3n2)c1 [APcK-110],SMALL PLAQUES,Class II,,"SMALL PLAQUES, SEE LOTS OF SATELLITE PLAQUES"
COc1cc(OC)cc(-c2ccc3c(-c4ccc(Cl)c(F)c4)n[nH]c3n2)c1 [APcK-111],PINPOINT PLAQUES,Class III,pinpoint plaque formations; also recorded: pinpoint plaques,PINPOINT PLAQUES
NC(=O)c1cccc(-c2ccc3c(-c4ccc(F)cc4)n[nH]c3n2)c1 [APcK-115],SMALL PLAQUES,,,
"O=C1NC(=O)/C(=C/c2ccc3nccnc3c2)S1 [AS-604240, reference compound]",PINPOINT PLAQUES,Class III,,PINPOINT PLAQUES
"O=C1NC(=O)/C(=C/c2ccc3c(c2)OC(F)(F)O3)S1 [AS-604850, reference compound]",NO PLAQUES,Class III,,NO PLAQUES
"CN1CCOc2cc(/C=C3\SC(=O)NC3=O)ccc21 [AS-605091, reference compound]",PINPOINT PLAQUES,Class III,,SMALL PLAQUES
COc1ccccc1NS(=O)(=O)c1cccc(Nc2cc(-c3ccc(O)cc3)ncn2)c1 [Eph2_wbz 102],no plaques,Class III,,NO PLAQUES
COc1ccccc1NS(=O)(=O)c1cccc(Nc2cc(-c3ccc([N+](=O)[O-])cc3)ncn2)c1 [Eph2_wbz 103],PINPOINT,Class III,,NO PLAQUES
COc1ccccc1NS(=O)(=O)c1cccc(Nc2cc(-c3ccc(C(=O)O)cc3)ncn2)c1 [Eph2_wbz 104],SLIGHTLY SMALLER PLAQUES,Class III,,NO PLAQUES
COc1ccccc1NS(=O)(=O)c1cccc(Nc2cc(-c3ccc(OC(C)=O)cc3)ncn2)c1 [Eph2_wbz 105],NO PLAQUES,Class III,small plaques with comets,SMALLER PLAQUES THAN WT
COc1ccccc1NS(=O)(=O)c1cccc(Nc2cc(-c3ccc(NC(C)=O)cc3)ncn2)c1 [Eph2_wbz 106],SMALLER PLAQUES THAN WT,Class III,,NO PLAQUES
COc1ccccc1NS(=O)(=O)c1cccc(Nc2cc(-c3ccc(C(F)(F)F)cc3)ncn2)c1 [Eph2_wbz 107],SMALLER PLAQUES THAN WT,Class II,,SMALLER PLAQUES THAN WT
COc1ccccc1NS(=O)(=O)c1cccc(Nc2cc(-c3ccc(C(C)=O)cc3)ncn2)c1 [Eph2_wbz 110],PINPOINT,Class III,pinpoint plaque formations; also recorded: pinpoint plaques,PINPOINT PLAQUES
COc1cccc(-c2cc(Nc3cccc(S(=O)(=O)Nc4ccccc4OC)c3)ncn2)c1 [Eph2_wbz 112],PINPOINT,Class III,,SMALL PLAQUES
COc1ccccc1NS(=O)(=O)c1cccc(Nc2cc(-c3ccc(NC(=O)CCC(=O)O)cc3)ncn2)c1 [Eph2_wbz 117],SMALL PLAQUES; COMETS?,Class III,,NO PLAQUES
COc1ccccc1Nc1cc(-c2ccc(O)cc2)ncn1 [Eph2_wbz 202],PINPOINT PLAQUES,Class III,,"PLAQUES SMALLER THAN WT, STILL SEE COMETS"
COc1ccccc1Nc1cc(-c2ccc(NC(C)=O)cc2)ncn1 [Eph2_wbz 206],SMALL PLAQUES,Class II,small plaques with comets,"SMALL PLAQUES, COMETS?"
COC(=O)c1ccc(-c2cc(Nc3ccccc3OC)ncn2)cc1OC [Eph2_wbz 211],SLIGHTLY SMALLER PLAQUES,Class II,,SMALL PLAQUES Comets?
